Experimental data reported in patent US20060234906A1, “Structure of a complex of retinoblastoma protein bound to e2f, and uses thereof” (priority 2002, published 2006).
Residues, ends and D or L forms follow the SMILES beside them. *: point of attachment. 5FAM = O=C1OC2(c3ccc(O)cc3Oc3cc(O)ccc32)c2ccc(C(=O)*)cc21

Legend:
pRb [1] = target: T1, pRb (Homo sapiens, UniProt P06400); assay: Fluorescence polarization titration binding of fluoro-labelled peptides with pRb; conditions: pRb titration with fluoro-labelled peptide, one site binding model; read-out: Kd
T1 sequence (P06400 373-771 limits assumed): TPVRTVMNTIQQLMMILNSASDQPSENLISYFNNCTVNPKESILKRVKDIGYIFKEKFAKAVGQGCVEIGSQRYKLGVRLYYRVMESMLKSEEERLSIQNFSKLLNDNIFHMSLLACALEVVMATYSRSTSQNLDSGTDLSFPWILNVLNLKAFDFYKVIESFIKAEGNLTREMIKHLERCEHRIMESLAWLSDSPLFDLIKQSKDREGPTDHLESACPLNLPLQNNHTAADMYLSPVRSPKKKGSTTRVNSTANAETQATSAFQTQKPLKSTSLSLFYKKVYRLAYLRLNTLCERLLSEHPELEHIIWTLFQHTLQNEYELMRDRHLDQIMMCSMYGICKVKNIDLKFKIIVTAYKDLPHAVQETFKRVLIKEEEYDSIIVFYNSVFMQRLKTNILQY
Excerpt: Synthetic peptides were synthesised and fluoro-tagged using either N-terminal labelling with 5 carboxyfluorescein succinimidyl ester or cysteine labelling with single isomer tetramethylrhodamine-5-maleimide. […] Fluorescein fluorescence measured at λexcite=485 and λemit=520 nm
Rhodamine fluorescence measured at λexcite=545 and λemit=580 nm
Measurements were made using BMG Fluorostar plate reader fitted with polarization optic. […] Data were fitted to a one site binding model using Graphpad prism.
pRb titration curves were performed in 96-well black plates, in a total reaction volume of 100 μL. Doubling dilutions from 10 μM stock of pRb were made in binding buffer (50 mM Tris HCl, pH7.0, 100 mM NaCl, 10 mM DTT, 0.05% NP-40) and 80 μL added in triplicate to wells. 20 μL of 2 μM fluoro-peptide was added and pipetted up and down to mix. The plate was read after 1 hr incubation at room temperature.

pRb/Fl-E7 = target: T2, pRb/Fl-E7 (Homo sapiens, UniProt P06400); assay: Fluorescence polarization displacement binding, Fl-E7 bound to pRb; conditions: fluoro-tagged peptide 400 nM pre-incubated with pRb 1 μM
T2 sequence (P06400 373-771 limits assumed): T1 sequence (P06400 373-771 limits assumed)
Experimental: (§1) Fluoro-tagged peptide (400 nM) was pre-incubated with pRb (1 μM ) and unlabelled peptide added at the concentrations shown. Displacement binding curves were plotted (FIG. 4a), and were fitted to a one site competition binding model using Graphpad prism curve fitting software.

RbAB = target: T3, RbAB (Homo sapiens, UniProt P06400); assay: RbAB
T3 construct: residues 372 to 589 of the A domain and 636 to 787 of the B domain; GST (with Prescission protease site) (N, cleaved yes); engineered thrombin site (LVPRGS) at the A-domain end of the A-B linker (C, cleaved yes); engineered thrombin site (LVPRGS) at the B-domain end of the A-B linker (N, cleaved yes); made in house; host or cells: E. coli
T3 sequence (P06400 2-928 limits assumed): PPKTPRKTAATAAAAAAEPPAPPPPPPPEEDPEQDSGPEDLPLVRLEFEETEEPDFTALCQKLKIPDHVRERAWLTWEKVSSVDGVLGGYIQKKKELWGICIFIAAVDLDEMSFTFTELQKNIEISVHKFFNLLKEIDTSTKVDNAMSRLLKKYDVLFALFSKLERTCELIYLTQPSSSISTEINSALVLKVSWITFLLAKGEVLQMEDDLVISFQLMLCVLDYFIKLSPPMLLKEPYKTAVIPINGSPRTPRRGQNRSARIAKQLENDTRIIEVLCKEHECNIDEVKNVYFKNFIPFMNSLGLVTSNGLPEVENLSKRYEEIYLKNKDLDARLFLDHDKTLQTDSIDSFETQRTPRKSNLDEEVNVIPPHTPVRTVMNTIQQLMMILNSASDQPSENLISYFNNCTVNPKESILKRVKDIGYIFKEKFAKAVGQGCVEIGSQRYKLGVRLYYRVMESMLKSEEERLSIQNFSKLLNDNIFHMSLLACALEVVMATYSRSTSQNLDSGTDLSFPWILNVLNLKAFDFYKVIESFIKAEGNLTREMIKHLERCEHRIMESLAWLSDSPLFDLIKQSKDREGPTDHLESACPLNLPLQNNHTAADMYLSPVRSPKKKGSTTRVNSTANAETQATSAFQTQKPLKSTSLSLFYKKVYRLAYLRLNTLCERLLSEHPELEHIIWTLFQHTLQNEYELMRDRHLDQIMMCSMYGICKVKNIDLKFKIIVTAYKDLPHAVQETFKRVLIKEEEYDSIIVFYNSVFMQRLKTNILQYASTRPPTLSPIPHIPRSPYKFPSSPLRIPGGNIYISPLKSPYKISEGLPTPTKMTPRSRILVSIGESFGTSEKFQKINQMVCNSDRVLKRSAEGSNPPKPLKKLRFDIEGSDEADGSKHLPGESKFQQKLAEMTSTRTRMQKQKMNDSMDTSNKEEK
Excerpt: (§2) Table printed on a drawing sheet, FIG. 2B
(§3) The patent's description of the figure: FIG. 2.
(§4) First copying reader's note: Binding constants of E2F fragments to the Rb constructs RbAB and RbABC; the error is printed in the same cell as the value.
Where the first naming reader finds the target: head: RbAB

pRb [2] = target: T4, pRb (Homo sapiens, UniProt P06400); assay: Competition experiment (Ni column, SDS-PAGE): E2F(409-426) against E2F(243-437) for binding to pRb; conditions: qualitative competition experiment
T4 construct: His6-RbAB (residues 376-792); made in house
T4 sequence (P06400 376-792): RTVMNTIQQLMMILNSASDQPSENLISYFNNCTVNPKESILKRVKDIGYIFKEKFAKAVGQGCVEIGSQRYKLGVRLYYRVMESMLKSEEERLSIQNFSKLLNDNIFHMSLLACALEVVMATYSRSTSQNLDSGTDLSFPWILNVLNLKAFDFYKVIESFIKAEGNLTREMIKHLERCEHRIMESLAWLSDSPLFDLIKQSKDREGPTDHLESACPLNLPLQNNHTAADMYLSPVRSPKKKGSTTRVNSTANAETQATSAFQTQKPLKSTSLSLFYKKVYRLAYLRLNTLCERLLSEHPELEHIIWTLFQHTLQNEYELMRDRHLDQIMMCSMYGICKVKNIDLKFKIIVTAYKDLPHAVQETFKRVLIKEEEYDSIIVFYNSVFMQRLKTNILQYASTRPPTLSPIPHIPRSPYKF
Excerpt: The proteins used in these experiments were His6-RbABC (RESIDUES 380-929); MW 66.07 kDa, non-tagged RbAB (residues 372-787); MW 48.67 KDa, are His6-RbAB (residues 376-792); MW 49.86 KDa, E2F(243-437); MW 21.45 KDa HPV E7 (residues 17-98); MW 9.38 KDa and E2F(409-426); MW 2.12 KDa. Protein concentrations were carefully determined by u.v. spectroscopy and confirmed by ITC titrations. The small acidic E2F proteins stain much weaker than Rb with Coomassie on SDS-PAGE. For all gel lanes contained a final RbAB concentration of ca. 7 μM. After equilibration with E2F(243-437) and E2F(409-426) the samples were loaded onto a 1.0 ml Ni column and washed with 7×0.5 ml of loading buffer (50 mM Tris pH 7.5, 200 mM NaCl & 10 mM Imidazole). The samples were then eluted with 7×0.5 ml elution buffer (50 mM Tris, pH 7.5, 200 mM NaCl, 200 mM Imidazole). After volume correction samples were boiled in SDS loading buffer and run on a 4-12% SDS PAGE. For the two pRb proteins and E2F(243-437) were mixed at 40 μM in a final volume of 0.5 ml. After equilibration for 2 hrs the mixture was loaded onto 1 ml Ni beads in a small column, washed with 7×0.5 ml of loading buffer (50 mM Tris, pH 7.5, 200 mM NaCl, 10 mM Imidazole), eluted using 7×0.5 ml elution buffer (50 mM Tris, pH 7.5, 200 mM NaCl, 200 mM Imidazole). Samples, after correcting for volume were boiled in SDS sample buffer and run on a 4-12% SDS gel.

RbABC = target: T5, RbABC (Homo sapiens, UniProt P06400); assay: RbABC
T5 construct: His6-RbABC (RESIDUES 380-929); made in house; host or cells: E. coli
T5 sequence (P06400 2-928 limits assumed): as the sequence (P06400 2-928 limits assumed) above
Excerpt: as §2, §3, §4
Where the first naming reader finds the target: head: RbABC

pRb/Fl-E2F = target: T6, pRb/Fl-E2F (Homo sapiens, UniProt P06400); assay: Fluorescence polarization displacement binding, Fl-E2F bound to pRb; conditions: fluoro-tagged peptide 400 nM pre-incubated with pRb 1 μM
T6 sequence (P06400 373-771 limits assumed): T1 sequence (P06400 373-771 limits assumed)
Experimental: as §1

| Compound | Kd (pRb [1]) [nM] | displacement of Fl-E7 from pRb (pRb/Fl-E7) | Kd (RbAB) [nM] | molar excess required to 50% compete with E2F(243-437) for binding to pRb (pRb [2]) | Kd (RbABC) [nM] | displacement of Fl-E2F from pRb (pRb/Fl-E2F) |
| --- | --- | --- | --- | --- | --- | --- |
| CC[C@H](C)[C@H](NC(=O)CNC(=O)[C@H](CCC(=O)O)NC(=O)CNC(=O)[C@H](CCC(=O)O)NC(=O)[C@H](CCC(=O)O)NC(=O)[C@H](CC(C)C)NC(=O)CNC(=O)[C@H](Cc1ccccc1)NC(=O)[C@H](Cc1c[nH]cn1)NC(=O)[C@H](Cc1ccc(O)cc1)NC(=O)[C@H](CC(=O)O)NC(=O)[C@H](CC(C)C)NC(=O)c1ccc2c(c1)C(=O)OC21c2ccc(O)cc2Oc2cc(O)ccc21)C(=O)N[C@@H](CCCNC(=N)N)C(=O)N[C@@H](CC(=O)O)C(=O)N[C@@H](CC(C)C)C(=O)N[C@@H](Cc1ccccc1)C(=O)N[C@@H](CC(=O)O)C(=O)O [Fluorescein-E2F, N-terminal amide link-age 5 carboxyfluorescein-E2F409-426, 18′mer] (5FAM-LDYHFGLEEGEGIRDLFD-OH; C-terminus assumed) | 450 ± 70 | does not displace E7 |  |  |  |  |
| CC[C@H](C)[C@H](NC(=O)CNC(=O)[C@H](CCC(=O)O)NC(=O)CNC(=O)[C@H](CCC(=O)O)NC(=O)[C@H](CCC(=O)O)NC(=O)[C@H](CC(C)C)NC(=O)CNC(=O)[C@H](Cc1ccccc1)NC(=O)[C@H](Cc1c[nH]cn1)NC(=O)[C@H](Cc1ccc(O)cc1)NC(=O)[C@H](CC(=O)O)NC(=O)[C@@H](N)CC(C)C)C(=O)N[C@@H](CCCNC(=N)N)C(=O)N[C@@H](CC(=O)O)C(=O)N[C@@H](CC(C)C)C(=O)N[C@@H](Cc1ccccc1)C(=O)N[C@@H](CC(=O)O)C(=O)O [E2F(409-426)] (H-LDYHFGLEEGEGIRDLFD-OH) |  | without disrupting F1-E7 binding | 340 ± 20 | 15-to 30 fold | 300 ± 30 | displace Fl-E2F |
